Results on seven compounds are retold here after US10379016B1, “Apparatus for inoculating agar plate” (priority 2018, dated 2019).

The subject of this assay is S. aureus strain ATCC 29213. Kind of assay: Antimicrobial susceptibility test by disc diffusion method (zone of inhibition). The class given is cell-based. As to conditions: microbial concentration 1 × 10^8 CFU/ml, 35-37° C., 18-20 h, NZI = No zone of inhibition; for Testing for zone of inhibition; Method of Inoculation: Swabbing: Mueller-Hinton agar plate inoculated by cotton swab; for Testing for zone of inhibition; Method of Inoculation: Apparatus, Double actuation / Testing for zone of inhibition; Method of Inoculation: Apparatus, Single actuation: Mueller-Hinton agar plate spray-inoculated with apparatus. As for the experimental part: In an experiment, Mueller-Hinton Agar plates were prepared. Forty grams of Mueller-Hinton Agar (MHA) was suspended in 1 liter distilled water and then boiled to dissolve the powder completely. The medium was sterilized by autoclaving at 121° C. for 15 min. After autoclaving, the medium was cooled to 45° C. and poured 25 mL molten agar into sterile 90 mm diameter Petri dishes (petri plates) to give a depth of about 4 mm. The surface of the agar was dried to remove excess moisture before use.
The suspension density was measured by using an UV spectrophotometer. The density of the suspension was adjusted to McFarland 0.5 by addition of saline or more organisms. The number of colony forming units (CFU/ml) in the culture samples plays an important role in the incubation of the agar plates. For colony isolation, diluted microbial suspension (about 1-2×10^3 CFU/ml) can be sprayed over agar plate.
For comparison, some agar plates were inoculated by cotton swab. A sterile cotton swab was dipped into the bacterial suspension (1-2×10^8 CFU/ml) and the excess fluid removed by turning the swab against the inside of the tube to avoid over-inoculation of plates. The inoculum was spread evenly over the entire surface of the agar plate by swabbing in three directions.
Other agar plates were inoculated by using the present apparatus. The agar plates were inoculated with inoculum of bacterial suspension (1-2×10^8 CFU/ml). The bacterial suspension was filled in the reservoir of the present apparatus and then sprayed uniformly using the atomizer over an agar plate held inside the spray chamber using the atomizer.
Antimicrobial susceptibility tests of the S. aureus strain ATCC 29213 was determined by the disc diffusion method according to the recommendations and guidelines of Clinical Laboratory Standard Institutes (CLSI M100-S24; 2014). A panel of commercial antibiotic discs comprising Gentamicin (GM), Amikacin (AN), Chloramphenicol (C), Imipenem (IPM), Tetracycline (TE), Cefepime (FEP), Sulfamethoxazole/trimethoprim (SXT), Aztreonam (ATM) was used for susceptibility testing. All commercial antibiotic discs were purchased from BBL (Becton Dickinson, USA).
The predetermined panel of antimicrobial disks was applied firmly on the surface of inoculated Mueller-Hinton agar media by using a disc dispenser device.
Within 15 min of application of antimicrobial disks, the plates were inverted and incubated aerobically at 35-37° C. for 18-20 h.
After incubation, inhibition zones were read at the point where no obvious growth is detected by the unaided eye when the plate was held about 30 cm from the eye. The inhibition zone diameters were measured to the nearest millimeter with a ruler. The plates were read from the back of the plate with reflected light against a dark background. Zone diameters of antibiotics in swab inoculated plate were compared with zone diameter in apparatus-inoculated plates.
(A growth-free zone around the sample is the usual read-out of agar diffusion tests.)

Regarding Gentamicin [GM], the “Testing for zone of inhibition; Method of Inoculation: Swabbing” value (from here on “Testing for zone of inhibition … Swabbing”) is given as 21 mm; the “Testing for zone of inhibition; Method of Inoculation: Apparatus, Double actuation” value stood at 22 mm; the “Testing for zone of inhibition; Method of Inoculation: Apparatus, Single actuation” value came out at 22 mm.
As for `CN(C)[C@@H]1C(O)=C(C(N)=O)C(=O)[C@@]2(O)C(O)=C3C(=O)c4c(O)cccc4[C@@](C)(O)[C@H]3C[C@@H]12` [TE, Tetracycline], the “Testing for zone of inhibition … Swabbing” value is 22 mm; the “Testing for zone of inhibition; Method of Inoculation: Apparatus, Double actuation” value came to 24 mm; the “Testing for zone of inhibition; Method of Inoculation: Apparatus, Single actuation” value is given as 25 mm.
The matching figures for `CO/N=C(\C(=O)N[C@@H]1C(=O)N2C(C(=O)[O-])=C(C[N+]3(C)CCCC3)CS[C@H]12)c1csc(N)n1` [FEP, Cefepime]: “NZI”, “NZI” and “NZI”.
On to `C[C@@H](O)[C@H]1C(=O)N2C(C(=O)O)=C(SCCN=CN)C[C@H]12` [IPM, Imipenem], for which the “Testing for zone of inhibition … Swabbing” value was 38 mm; the “Testing for zone of inhibition; Method of Inoculation: Apparatus, Double actuation” value worked out at 38 mm; the “Testing for zone of inhibition; Method of Inoculation: Apparatus, Single actuation” value is 38 mm.
With `O=C(N[C@H](CO)[C@H](O)c1ccc([N+](=O)[O-])cc1)C(Cl)Cl` [C, Chloramphenicol], the “Testing for zone of inhibition … Swabbing” value turned out to be 21 mm; the “Testing for zone of inhibition; Method of Inoculation: Apparatus, Double actuation” value turned out to be 22 mm; the “Testing for zone of inhibition; Method of Inoculation: Apparatus, Single actuation” value is 22 mm.
Turning to `C[C@H]1[C@H](NC(=O)/C(=N\OC(C)(C)C(=O)O)c2csc(N)n2)C(=O)N1S(=O)(=O)O` [ATM, Aztreonam], the “Testing for zone of inhibition … Swabbing” value is “NZI”; the “Testing for zone of inhibition; Method of Inoculation: Apparatus, Double actuation” value is reported as “NZI”; the “Testing for zone of inhibition; Method of Inoculation: Apparatus, Single actuation” value is reported as “NZI”.
Consider `NCC[C@H](O)C(=O)N[C@@H]1C[C@H](N)[C@@H](O[C@H]2O[C@H](CN)[C@@H](O)[C@H](O)[C@H]2O)[C@H](O)[C@H]1O[C@H]1O[C@H](CO)[C@@H](O)[C@H](N)[C@H]1O` [AN, Amikacin], for which the “Testing for zone of inhibition … Swabbing” value amounted to 22 mm; the “Testing for zone of inhibition; Method of Inoculation: Apparatus, Double actuation” value is 23 mm; the “Testing for zone of inhibition; Method of Inoculation: Apparatus, Single actuation” value is given as 26 mm.
